The series in a line: gradient 5% acetonitrile 3 min, to 50% in 2 min, to 85% in 15 min, held 3 min, 100 µL/min. Conditions: column: Zorbax Extend-C18 2.1 x 50 mm; eluents: water / acetonitrile, 0.1% formic acid. The method in brief:
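Pure standards were analyzed in mixtures of ~100 molecules using HPLC coupled to a quadrupole time-of-flight mass spectrometer, in both positive and negative ionization mode. Separation used a Zorbax Extend-C18 column (2.1 × 50 mm, 1.8 μm) at 100 μL/min, with water and acetonitrile each containing 0.1% formic acid. Dead and dwell volumes were 40 μL and 900 μL, and data were collected over 3 months. Retention time was read from computationally picked adduct peaks, each inspected manually.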
With `Cc1ccc2ncn(C3CCN(S(=O)(=O)c4cccc(Cl)c4)CC3)c(=O)c2c1`, the RP-LC retention time came out at 963 s.

Regarding `CCn1c(SC)nnc1-c1nn(C)c2c1CN(C(C)=O)CC2`, the RP-LC retention time is 664 s.

For `O=C(CSc1ccc(-c2ccccn2)nn1)Nc1ccc(F)c(F)c1`, the RP-LC retention time was found to be 789 s.

Take `CCOc1ccc(OCC)c(NC(=O)C2CCN(c3nccnc3Sc3ccc(C)cc3)CC2)c1`: the RP-LC retention time is 1380 s.

As for `COC(=O)c1cc(C2CC2)nc2c1c(=O)n(Cc1ccc(C)cc1)c(=O)n2C`, the RP-LC retention time came to 1160 s.

Regarding `Cc1c(C(=O)N2CCCCCC2)sc2ncn(CC(=O)N3CC(C)CC(C)C3)c(=O)c12` (stereo not given), the RP-LC retention time turned out to be 891 s.

Turning to `O=C(Nc1ccc(N2CCOCC2)cc1)C1CCCN(c2ncc(-c3ccc(F)cc3)cn2)C1` (stereo not given), the RP-LC retention time came to 951 s.

`CCn1c(=O)c(C(=O)NCc2ccc(C)o2)nc2cccnc21` returned an RP-LC retention time of 766 s.

In the case of `CC(NC(=O)c1cc(-c2ccccc2)cn1C)c1ccccn1` (stereo not given), the RP-LC retention time amounted to 703 s.

The compound `COC(=O)c1c(C)c(C(=O)C(C)N(C(=O)c2ccc(F)cc2)C(C)C)c(C)n1C` (stereo not given) displayed an RP-LC retention time of 922 s.

On to `Cc1cccc(-c2nc(Cn3nnc(C(=O)NCc4ccc(C(F)(F)F)cc4)c3C)c(C)o2)c1`, for which the RP-LC retention time was found to be 1210 s.

In turn, `O=C(Nc1ccccc1)Oc1ccc[nH]c1=O` had an RP-LC retention time of 650 s.

`O=S(=O)(NCc1cccnc1-c1ccc(F)cc1)c1ccc(Cl)cc1` registered an RP-LC retention time of 799 s.

`CNC(=O)C1=CCN(C(=O)NC2CCCC2)CC1` showed an RP-LC retention time of 615 s.

On to `CCN1C(=O)c2cccnc2Sc2cc(CNC(=O)Cc3ccsc3)ccc21`, for which the RP-LC retention time came to 728 s.

In the case of `O=C(Cc1csc(SCc2ccncc2)n1)NCc1ccc2c(c1)OCO2`, the RP-LC retention time turned out to be 568 s.

Take `CCc1noc(NC(C)=O)c1-c1ccc(C)c(S(=O)(=O)N2CCc3ccccc3C2)c1`: the RP-LC retention time stood at 956 s.

The compound `Cc1ccc(-c2noc(CN3C(=O)C(C)Oc4ccccc43)n2)cc1C` (stereo not given) returned an RP-LC retention time of 1180 s.

On to `COc1ccc2c(c1)C1(CCN(S(=O)(=O)c3ccccc3F)C1)C(=O)N2` (stereo not given), for which the RP-LC retention time was 808 s.

In the case of `Cc1cccc(-c2nc(Cc3noc(-c4ccncc4)n3)c(C)o2)c1`, the RP-LC retention time was determined as 1010 s.

On to `CCCS(=O)(=O)N1CCc2nc(N3CCN(C)CC3)sc2C1`, for which the RP-LC retention time stood at 764 s.

In turn, `CC1CCN(C(=O)C2CCN(c3cc(N4CCCCC4)ncn3)CC2)CC1` yielded an RP-LC retention time of 676 s.

`CC(=O)N1c2ccc(S(=O)(=O)N(C)CC(=O)N3CCN(c4ccccn4)CC3)cc2CC1C` (stereo not given) showed an RP-LC retention time of 590 s.

For the compound `CCc1noc(NC(C)=O)c1-c1ccc(OC)c(S(=O)(=O)Nc2ccc(C(C)C)cc2)c1`, the RP-LC retention time came out at 891 s.

For `CCOc1cc(=O)n2c(c1C(=O)Nc1cc(OC)cc(OC)c1)CCCC2`, the RP-LC retention time was found to be 718 s.

Turning to `COc1ccc(CC(=O)N2CCCC2c2cc(C)on2)cc1` (stereo not given), the RP-LC retention time was 736 s.

Take `COc1ccc(Cc2nnc(SCC(=O)Nc3nc(-c4ccccc4)c(C)s3)o2)cc1`: the RP-LC retention time came to 1020 s.

`O=C(Nc1ccc(F)cc1F)N1CCc2nc(-c3ccc(F)cc3)ncc2C1` showed an RP-LC retention time of 932 s.

`O=C(NC1CCCC1)C1CCCCN1S(=O)(=O)c1ccc(Br)cc1` (stereo not given) displayed an RP-LC retention time of 1040 s.

In turn, `O=S(=O)(Nc1ccc(F)cc1)c1cccnc1Nc1ccccc1` returned an RP-LC retention time of 1050 s.

As for `CC(C)OC(=O)Cn1nc2ccc(S(=O)(=O)N3CCSCC3)cn2c1=O`, the RP-LC retention time was determined as 829 s.

On to `CCn1ccc(C(=O)NC2CCN(C3=NS(=O)(=O)C(c4ccccc4)=C3C)CC2)n1`, for which the RP-LC retention time turned out to be 746 s.

For `Cc1ccc(Sc2nccnc2N2CCCC(C(=O)NCc3ccccn3)C2)cc1` (stereo not given), the RP-LC retention time is 766 s.

Take `COCCC1(NC(=O)c2ocnc2C)CCN(S(C)(=O)=O)CC1`: the RP-LC retention time worked out at 614 s.

In the case of `O=C(NCc1nc(-c2ccc3oc(-c4ccccc4)nc3c2)no1)c1ccccc1`, the RP-LC retention time was found to be 1010 s.

`Cc1ccc2c(Nc3ccc(Br)cc3)c(C(=O)N3CCOCC3)cnc2n1` gave an RP-LC retention time of 608 s.

The compound `CC1=C(c2ccc(C)cc2)S(=O)(=O)N=C1N1CCCN(C(=O)c2ccco2)CC1` returned an RP-LC retention time of 653 s.

In turn, `O=C(c1ccsc1)N1CCN(c2cc(-c3ccc(Cl)cc3)[nH]n2)CC1` showed an RP-LC retention time of 809 s.

Take `Cc1cc2nc(C(F)(F)F)c(=O)n(C(C)C(=O)NCCCN3CCN(C)CC3)c2cc1C` (stereo not given): the RP-LC retention time worked out at 652 s.

In turn, `COc1ccc(N2C=C(C#N)S(=O)(=O)c3ccc(F)cc32)cc1Cl` showed an RP-LC retention time of 948 s.

Regarding `COc1ccccc1CCC(=O)NCc1cccnc1OC`, the RP-LC retention time stood at 749 s.

In the case of `O=C(CC1CCCN(c2cnn(CC3CC3)c(=O)c2)C1)N1CCSCC1` (stereo not given), the RP-LC retention time amounted to 740 s.

Turning to `COc1ccc(NC(=O)c2cn(C)nc2S(=O)(=O)N2CCSCC2)cc1`, the RP-LC retention time stood at 848 s.

Consider `CCc1nccn1Cc1nc(-c2cccc(C(F)(F)F)c2)no1`, for which the RP-LC retention time was 686 s.

As to `COc1cccc(CN2CC(N(C3CCOCC3)S(C)(=O)=O)C2)c1`, the RP-LC retention time turned out to be 614 s.

Compound `COc1ccc(Cl)cc1NC(=O)N1CCN(c2cc(C)nc(Nc3ccc(C)cc3)n2)CC1` returned an RP-LC retention time of 798 s.

As for `COC(=O)c1cc(C2CC2)nc2c1c(=O)n(Cc1ccccc1F)c(=O)n2C`, the RP-LC retention time was 1080 s.

Take `Cc1cc(C)n(-c2ccc(N3CCN(C(=O)COc4ncccn4)CC3)nn2)n1`: the RP-LC retention time came out at 596 s.

In turn, `O=C(NCc1ccc(F)c(Cl)c1)c1cn(-c2ccc(NC(=O)C3CC3)cn2)cn1` came in with an RP-LC retention time of 801 s.

Compound `COc1cc(S(=O)(=O)NCc2ccccc2)c(OC)cc1Br` yielded an RP-LC retention time of 867 s.

With `O=C(Cn1nc2n(c1=O)CCCCC2)Nc1cccc(Cl)c1`, the RP-LC retention time turned out to be 730 s.

For the compound `O=C(Cn1c(=O)n(Cc2ccc3c(c2)OCO3)c(=O)c2ncccc21)N1CCCc2ccccc21`, the RP-LC retention time was 826 s.

Consider `CC(C)Cn1cc(CCNC(=O)c2ccccc2C(F)(F)F)c2cccnc21`, for which the RP-LC retention time is 854 s.

`Cc1ccc(F)c(NS(=O)(=O)c2cc3c(s2)CCN(C(=O)C2CC2)C3)c1` registered an RP-LC retention time of 848 s.

Consider `O=C(NCC1CC1)c1ccc2c(c1)nc1n2CCN(C2CCCCC2)C1=O`, for which the RP-LC retention time worked out at 706 s.

As for `CCOC(=O)C1CCN(C(=O)COc2ccc(NC(C)=O)cn2)CC1`, the RP-LC retention time turned out to be 633 s.

Compound `COc1ccc(-c2cn3cccnc3n2)cc1NC(=O)c1ccccc1Br` came in with an RP-LC retention time of 685 s.

`O=C(NC1CC1)c1nc(C(=O)N2CCN(c3ccccn3)CC2)cs1` had an RP-LC retention time of 559 s.

`c1ccc(-c2nc(-c3cnccn3)no2)c(OC2CNC2)c1` returned an RP-LC retention time of 583 s.

With `C[C@@H]1CN(C(=O)c2ccoc2)C[C@H]1c1nc(-c2ccncc2)no1`, the RP-LC retention time turned out to be 678 s.

The values are drawn from the METLIN SMRT retention time set (Domingo-Almenara et al. 2019).
